The record followed here is patent US5241065A, “2,3,4,5-tetrahydro-1H-3-benzazepines having anti-psychotic activity” (Schering Corporation, priority 1992, dated 1993).

Data set [1] has as its system squirrel monkeys. In words: Suppression of conditioned avoidance response (CAR) in squirrel monkeys. The class given is in vivo. Conditions: Saimiri, in Primates, po, read-out: Monkey CAR, minimal effective dose (MED). The text has this:
This test is designed to measure the effective duration of candidate compounds.
Male or female squirrel monkeys weighing 800-1200 g housed one per cage are utilized. Initially each monkey is taught to terminate both a 3mA electric shock delivered through the grid floor of the test cage and an overlapping tone by depressing a lever in the cage.
In the second phase of the testing, a ten second tone is turned on prior to the shock component. A lever pass during the sounding of the tone terminates the tone and prevents the occurrence of the shock component and is denoted as an "avoidance".
The compound testing is commenced after three consecutive days of re-testing. […] The monkey must achieve at lest an 85% correct avoidance before drug testing commences. If this minimal avoidance level is achieved, the next day the monkey is orally dosed or injected with the subject compounds in the appropriate vehicle, and the number of avoidances are recorded. An animal is defined as having been "affected" by any drug treatment if there is a 50% loss of avoidance behavior relative to the performance of the animal when only the vehicle is injected. The minimal effective dose (MED) is defined as that dose producing an effect in at least 50% of the animals.
A test may be conducted to determine the effective duration of a compound in accordance with the present invention by comparing a compound of the invention to the known compound SCH 23390. A compound of the invention administered 60 minutes prior to the test is compared to SCH 23390 administered 30 minutes prior to test. The duration of each compound is determined by administering a 12.0 mg/kg p.o. dose six hours prior to testing.

Data set [2] relates to rats. The experiment in a line: Conditioned avoidance response (CAR) suppression in rats. In kind it is in vivo. As to conditions: Rattus norvegicus, read-out: Rat CAR, minimal effective dose (MED). As to the method: N.Y. Acad. Sci. 66, 740 (1957)]. A series of experiments was carried out to assess the ability of the compounds of this invention to suppress the conditioned avoidance response (CAR) in rats.
Rats were required to jump onto a platform located 6.75 inches (17.15 cm) above the grid floor of an experimental chamber in response to a 5-second tone to avoid a 10-second foot shock (0.6 ma). Each experimental session consisted of 20 such trials presented at 30-second intervals. A correct CAR is scored whenever the rat jumps onto the platform during the tone (prior to foot shock). An escape response is scored when the rat jumps onto the platform during a shock. A response failure is defined as the lack of an escape response during the 10-second shock period.
Groups of 6-8 rats were trained in two consecutive days (total of 40 trials). Rats that reached criterion on day 2 (correct CARs in 16 or more of the 20 trials) were treated with either a test drug or a vehicle on day 3. Suppression of CAR was analyzed statistically using Student's t-test comparing the performances of drug-treated to vehicle-treated rats.

Data set [3] deals with rat. The experiment in a line: Toxicity, rat. Conditions: for Toxicity, rat: result in words, dose in mpk within the value. In kind it is in vivo. The text has this: The compounds of this invention are substantially non-toxic at the therapeutic close, as is shown in the following Table 4, which compares them with related reference compounds: […]
Data set [4] concerns the target T1, D-2 receptor (Rattus norvegicus, UniProt P61169).
T1 construct: Striatal tissue was excised, pooled, and homogenized; from tissue; host or cells: rat striatum (Sprague-Dawley), washed membrane homogenate
The experiment in a line: Competitive inhibition assay, 3H-spiperone binding to rat striatal tissue (D-2). Details: species or system Male Sprague-Dawley rats. As to conditions: rat striatal homogenate, 0.2 nM 3H-spiperone, pH 7.4, 37° C., 15 minutes, read-out: Ki against 3H-spiperone. An excerpt: (§1) Many compounds capable of effecting reproducible physiological changes in neural tissues are believed to operate by binding at one or more receptor sites.
(§2) A methodology for characterization of binding and an interpretation of the data are described by Billard et al., Life Sciences 35, 1885 (1984) in which the binding of (R)-(+)-7-chloro-8-hydroxy-3-methyl-1-phenyl-2,3,4,5-tetrahydro-1H-3-benzazepine (SCH 23390) (as its hemi-maleate) to the dopamine D-1 receptor is characterized.
(§3) Tritiated SCH 23390 and tritiated spiperone (a potent D-2 ligand) were obtained as described in the Billard et al. reference supra and serially diluted in 0.05 M Tris buffer, pH 7.4, as required. A compound of the invention was diluted in 0.05 M Tris buffer, pH 7.4, as required.
(§4) Male Sprague-Dawley rats (200 to 250 g) from Charles River Breeding Laboratories, Mass., were used to obtain brain tissue. The rats were humanely sacrificed and their brains removed and placed on ice. Striatal tissue was excised, pooled, and homogenized (Brinkman Polytron, 10 sec) in 100 volumes (w/v) of ice cold 50 mM Tris buffer, pH 7.4 (at 25° C.). The homogenate was centrifuged at 20,000 x g for 10 min. The resulting pellet was re-homogenized in Tris buffer and centrifuged again. The final pellet was resuspended in 50 mM Tris buffer, pH 7.4 containing 120 mM NaCl, 5 mM KCl, 2 mM CaCl2, and 1 mM MgCl2.
(§5) Polypropylene incubation tubes received 100 μl of the individual test compounds at various concentrations dissolved or suspended in 0.05 M Tris buffer, pH 7.4 containing 4 mg/ml methylcellulose, 100 μl of a solution of ^3 H-SCH 23390 in Tris buffer (final reaction mixture concentration=0.3nM) or 100 μl of a solution of ^3 H-spiperone in Tris buffer (final concentration=0.2 nM) and 800 μl of tissue suspension (ca. 3 mg/assay). Tubes were incubated at 37° C. for 15 minutes and rapidly vacuum filtered through Whatman GF/B filters and rinsed 4 times with 4 ml of ice cold 50 mM Tris buffer, pH 7.4. The filters were transferred to scintillation vials, equilibrated with 10 ml of scintillant (Scintosol, Isolab, Inc.) for 16 hours at 25° C., and the radioactivity was determined in a liquid scintillation counter. Ki values were determined as described by Billard et al. using the relationship: K i =IC50 /(1+([…])) wherein IC50 =concentration of test drug necessary to displace 50% of specifically bound ^3 H-SCH 23390, [L]=concentration of radioligand used in the assay, and KD =dissociation constant.

Data set [5] has as its target T2, dopamine D-1 receptor (Rattus norvegicus, UniProt P18901).
T2 construct: Striatal tissue was excised, pooled, and homogenized; from tissue; host or cells: rat striatum (Sprague-Dawley), washed membrane homogenate
In words: Competitive inhibition assay, 3H-SCH 23390 binding to rat striatal tissue (dopamine D-1). Details: species or system Male Sprague-Dawley rats. As to conditions: rat striatal homogenate, 0.3 nM 3H-SCH 23390, pH 7.4, 37° C., 15 minutes, read-out: Ki against 3H-SCH 23390.
Text: as §1, §2, §3, §4, §5

Read-outs that look alike come from different tables or passages of the source.

T1 sequence (P61169 whole entry): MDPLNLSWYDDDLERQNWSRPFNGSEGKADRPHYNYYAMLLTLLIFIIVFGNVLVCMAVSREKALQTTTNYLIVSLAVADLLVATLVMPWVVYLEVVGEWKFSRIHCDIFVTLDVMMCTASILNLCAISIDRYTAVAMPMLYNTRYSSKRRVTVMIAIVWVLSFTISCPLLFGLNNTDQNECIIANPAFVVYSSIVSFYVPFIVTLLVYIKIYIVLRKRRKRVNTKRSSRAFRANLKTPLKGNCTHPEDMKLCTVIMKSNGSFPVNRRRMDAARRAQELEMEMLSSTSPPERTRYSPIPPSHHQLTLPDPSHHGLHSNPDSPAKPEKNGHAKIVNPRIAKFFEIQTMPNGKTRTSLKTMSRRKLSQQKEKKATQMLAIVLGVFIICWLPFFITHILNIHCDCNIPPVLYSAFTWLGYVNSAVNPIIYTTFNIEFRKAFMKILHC
T2 sequence (P18901 whole entry): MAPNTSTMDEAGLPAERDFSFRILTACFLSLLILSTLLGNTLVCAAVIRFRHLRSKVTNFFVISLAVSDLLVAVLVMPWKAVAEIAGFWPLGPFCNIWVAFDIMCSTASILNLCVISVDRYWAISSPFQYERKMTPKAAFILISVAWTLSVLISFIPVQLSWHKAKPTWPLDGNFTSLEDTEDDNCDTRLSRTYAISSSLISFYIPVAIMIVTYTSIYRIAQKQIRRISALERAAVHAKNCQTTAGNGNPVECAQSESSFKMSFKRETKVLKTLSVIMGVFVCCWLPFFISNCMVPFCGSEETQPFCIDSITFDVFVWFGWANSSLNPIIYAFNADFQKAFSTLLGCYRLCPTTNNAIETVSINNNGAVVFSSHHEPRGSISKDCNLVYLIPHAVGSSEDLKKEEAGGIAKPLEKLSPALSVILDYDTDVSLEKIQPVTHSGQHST

For the molecule `Cc1cc2c(cc1O)C(C1=CCCCC1)CN(C)CC2` (racemic) [A, (R,S)-1-(1-cyclohexenyl)-8-hydroxy-3,7-dimethyl-2,3,4,5-tetrahydro-1H-3-benzazepine, reference compound], the minimal effective dose – broadly, the lowest level tested that produced the effect sought – is 3 mg/kg in data set [1], 10 mg/kg in data set [1] (at 1 hour) and above 30 mg/kg in data set [2] (po (per oral)). In data set [3] (10 mpk po, after 1 hour), the “Toxicity, rat: salivation” value is on record as “salivation in 1 of 3 rats”. For the same molecule, the Ki – broadly, a measure of affinity in units of concentration, obtained from inhibition or displacement – in data set [4] amounted to 1880 nM; in data set [5] it was 8.7 nM.
For the molecule `CC1=C(C2CN(C)CCc3cc(Cl)c(O)cc32)CCC1` (racemic) [G, (R,S)-7-chloro-8-hydroxy-3-methyl-(2-methyl-1-cyclopentenyl)-2,3,4,5-tetrahydro-1H-3-benzazepine], the minimal effective dose in data set [1] was 5 mg/kg; in data set [1] (at 6 hours) it was 20 mg/kg; in data set [2] (po (per oral)) it was 10 mg/kg; in data set [2] (po, at 6 hours) it was 50 mg/kg; in data set [2] (sc (subcutaneous)), 0.01 mg/kg. Besides, the “Toxicity, rat” value in data set [3] is given as “Non-toxic at 300 mpk”. The figures for the Ki in data set [4] and in data set [5] were 656 nM and 0.27 nM, respectively.
Take `CN1CCc2cc(Cl)c(O)cc2C(C2=CCCCC2)C1` (racemic) [K, (R,S)-7-chloro-1-(1-cyclohexenyl)-8-hydroxy-3-methyl-2,3,4,5-tetrahydro-1H-3-benzazepine]: the inhibitory constant (Ki) in data set [4] came to 1440 nM; in data set [5], 2.2 nM.
With `CC1=C(C2CN(C)CCc3cc(Cl)c(O)cc32)CCCC1` (racemic) [N, (R,S)-7-chloro-8-hydroxy-3-methyl-1-(2-methyl-1-cyclohexenyl)-2,3,4,5-tetrahydro-1H-3-benzazepine], the minimal effective dose in data set [2] (po (per oral)) stood at 30 mg/kg. The Ki in data set [4] turned out to be 420 nM; in data set [5], 0.83 nM.
As to `CN1CCc2cc(Cl)c(O)cc2C(C2=CCCC2)C1` (racemic) [Q, (R,S)-7-chloro-1-(1-cyclopentenyl)-8-hydroxy-3-methyl-2,3,4,5-tetrahydro-1H-3-benzazepine], the Ki in data set [4] worked out at 595 nM; in data set [5], 2.3 nM.
As to `Cc1cc2c(cc1O)[C@H](C1=CCCCC1)CN(C)CC2` [B, (S)-1-(1-cyclohexenyl)-8-hydroxy-3,7-dimethyl-2,3,4,5-tetrahydro-1H-3-benzazepine, reference compound], the minimal effective dose in data set [2] (po (per oral)) was above 30 mg/kg. Moreover, the Ki amounted to 4370 nM in data set [4] and 101 nM in data set [5].
As to `Cc1cc2c(cc1O)[C@@H](C1=CCCCC1)CN(C)CC2` [C, (R)-1-(1-cyclohexenyl)-8-hydroxy-3,7-dimethyl-2,3,4,5-tetrahydro-1H-3-benzazepine, reference compound], in data set [2] (sc (subcutaneous)), the minimal effective dose stood at 0.1 mg/kg. For the same molecule, the Ki in data set [4] was found to be 1670 nM; in data set [5] it was 4 nM.
For `CN1CCc2cc(Cl)c(O)cc2C(C2CCCC2)C1` (stereo not drawn) [D, reference compound], the minimal effective dose was above 30 mg/kg in data set [2] (po (per oral)) and 3 mg/kg in data set [2] (sc (subcutaneous)).
`Cc1cc2c(cc1O)C(C1CCCCC1)CN(C)CC2` (stereo not drawn) [E, reference compound]: the minimal effective dose amounted to 10 mg/kg in data set [2] (po (per oral)) and 3 mg/kg in data set [2] (sc (subcutaneous)). Besides, the “Toxicity, rat” value in data set [3] is on record as “Lethal at 300 mpk”. Also, the inhibitory constant (Ki) amounted to 3610 nM in data set [4] and 48 nM in data set [5].
Regarding `Cc1cc2c(cc1O)C(C1CCCC1)CN(C)CC2` (stereo not drawn) [F, reference compound], in data set [3], the “Toxicity, rat” value is reported as “Lethal at 300 mpk”. The values for the inhibition constant Ki in data set [4] and in data set [5] were 1050 nM and 44 nM, respectively.
Consider `CC1=C([C@H]2CN(C)CCc3cc(Cl)c(O)cc32)CCC1` [H, (R)-7-chloro-8-hydroxy-3-methyl-1-(2-methyl-1-cyclopentenyl)-2,3,4,5-tetrahydro-1H-3-benzazepine], for which the minimal effective dose in data set [1] was 2 mg/kg; in data set [1] (at 4 hours), 10 mg/kg; in data set [2] (po (per oral)), 5 mg/kg; in data set [2] (po, at 6 hours), 25 mg/kg. Moreover, in data set [3], the “Toxicity, rat” value was “Non-toxic at 150 mpk”. Besides, the inhibitory constant (Ki) in data set [4] is 358 nM; in data set [5] it was 0.43 nM.
With `CC1=C([C@@H]2CN(C)CCc3cc(Cl)c(O)cc32)CCC1` [J, (S)-7-chloro-8-hydroxy-3-methyl-1-(2-methyl-1-cyclopentenyl)-2,3,4,5-tetrahydro-1H-3-benzazepine], the minimal effective dose in data set [2] (po (per oral)) was above 30 mg/kg. Moreover, the inhibition constant (Ki) was 3690 nM in data set [4] and 15 nM in data set [5].
Taken in the same sequence, the figures for `CN1CCc2cc(Cl)c(O)cc2[C@H](C2=CCCCC2)C1` [L, (S)-7-chloro-1-(1-cyclohexenyl)-8-hydroxy-3-methyl-2,3,4,5-tetrahydro-1H-3-benzazepine] were above 30 mg/kg, 2080 nM and 23 nM.
Consider `CN1CCc2cc(Cl)c(O)cc2[C@@H](C2=CCCCC2)C1` [M, (R)-7-chloro-1-(1-cyclohexenyl)-8-hydroxy-3-methyl-2,3,4,5-tetrahydro-1H-3-benzazepine], for which the minimal effective dose in data set [2] (po (per oral)) was found to be 10 mg/kg. For the same molecule, the “Toxicity, rat” value in data set [3] is reported as “Secretions at 300 mpk”. Besides, the Ki in data set [4] amounted to 1090 nM; in data set [5], 0.87 nM.
Regarding `CC(C)=C(C)C1CN(C)CCc2cc(Cl)c(O)cc21` (stereo not drawn) [P], the minimal effective dose in data set [2] (po (per oral)) turned out to be 10 mg/kg. For the same molecule, the Ki in data set [4] amounted to 554 nM; in data set [5], 2.8 nM.
